What all share (type): in vivo, human
The subject of experiment [1] is subjects with fibromyalgia. In words: Quantitative Sensory Testing, all outcomes. The source says:
Other efficacy assessments, as used herein, include “Multi-Modal Automated Sensory Testing” (MAST) Pressure Pain Sensitivity, “Cuff Algometry,” and “Visual Stimulation Task.”
The multi-modal automated sensory testing (MAST) system was used to measure localized pressure sensitivity at an asymptomatic, neutral body site, the thumbnail. The MAST system is a nonsignificant-risk investigational device that applies a computer-controlled mechanical stimulation at precisely controlled intensity levels and durations. The validity in the measurement of centrally-mediated pain sensitivity has been discussed extensively. The MAST system delivered an ascending series of computer-controlled, 5-second pressures at 20-second intervals (with 20% jitter) to the subject's thumbnail bed, beginning at 0.25 to 0.5 kg/cm^2 and increasing in steps of 0.25 to 0.50 kg/cm^2. Pain intensity was rated after each pressure on a 0 to 100 NRS. Testing was terminated when the first of 3 possible stop conditions were met: 1) subject reached her personal pain tolerance and requested to stop the test, 2) subject reported a pain intensity rating of >80, or 3) the maximum pressure of 10 kg/cm^2 was delivered. A regression model was used fit the stimulus-response data obtained from this procedure and interpolate Pain50, defined as the pressure intensity that evokes a moderate level of suprathreshold pressure pain (i.e., 50/100). Additional derived variables included: 1) Pressure pain threshold, defined as the first pressure in a series of at least 2 consecutive pressures that elicited a NRS pain rating >0; 2) slope of the stimulus-response function as a measure of the rate of pain increase; and 3) pressure pain tolerance, defined as the last pressure recorded in the stimulus response profile. […]
Localized pressure pain sensitivity was also measured bilaterally at 3 additional body regions: trapezius, wrist, and patella. […] Sensitivity was measured using a digital algometer with a 1-cm^2 flat rubber probe. […]
Large volume, deep tissue pressure sensitivity was assessed by cuff algometry. […]

The test system of experiment [2] is subjects with fibromyalgia. In words: Patient Global Impression of Change (PGI-C). The source says:
As used herein, the “PGI-C” is Patient Global Impression of Change. The PGI-C is a 7-point Likert scale that allows subjects to rate the change in the disease state from study initiation to specific time points during the study or at the end of the study. It provides the subject's impression of overall change.
The PGI-C data were collected and analyzed at visits Week 2, Week 4, Week 6, and Follow-up (Week 7). […] The actual values and changes from treatment periods at Week 4 and Week 6 were summarized using descriptive statistics. A frequency distribution was created for each analysis visit based on the collected categorical values. The analysis categorical values stated above were summarized by frequency distributions and p-values using McNemar's test.

Experiment [3] deals with visual stimulus-evoked brain activation. Briefly: fMRI of visual stimulation, BOLD activations. Particulars: either dose relative to baseline or placebo. An excerpt:
As used herein, “Functional Magnetic Resonance Imaging of Evoked Pain and Visual Stimulation” refers to the following procedure. During evoked pain and visual stimulation fMRI paradigms, participants were lying in the scanner as they received either pressure stimulation to their calf muscle or they experienced an unpleasant visual stimulus. For both pain and visual stimulation, whole-brain Blood Oxygenation Level Dependent (BOLD) functional images were acquired.
Neural mechanisms of this multimodal hypersensitivity were assessed using fMRI. Whole brain BOLD functional images were acquired. The visual stimulation task was 3 minutes in duration and consisted of 2 different visual stimuli presented in a block design. The control stimulus was a fixed crosshair centered in the middle of a solid color background, whereas the experimental stimulus was a flashing annulus checkerboard (8 Hz frequency) (see below figure of example of visual stimuli). […]
Several analyses were conducted with the fMRI resting state and task data. Results were assessed by: 1) a primary analysis, where a finding was deemed significant with a corrected cluster level p<0.05, derived from an uncorrected voxel-wise p<0.001, and 2) an exploratory analysis, where a finding was deemed significant with an uncorrected voxel-wise p<0.005 and having a cluster greater than or equal to 80 contiguous voxels. […]

As to `CC(C)C(=O)N1CCC[C@]12CN([C@H](C(N)=O)[C@@H](C)O)C2=O` [NYX-2925, (2S, 3R)-3-hydroxy-2-((R)-5-isobutyryl-1-oxo-2,5-diazaspiro[3.4]octan-2-yl)butanamide], the “effects on QST relative to placebo” value in experiment [1] (NYX-2925 20 mg) is “no significant or marginal effects”. For the same compound, the “differences on QST between doses” value in experiment [1] (NYX-2925 20 mg versus NYX-2925 200 mg) is “no significant or marginal differences”. For the same compound, the “effects on QST outcomes relative to placebo, other than right trapezius threshold” value in experiment [1] (NYX-2925 200 mg) is “no additional significant or marginal effects”. The “Patient Global Impression of Change” value is recorded as “a larger proportion of subjects had a reduction of severity” in experiment [2] (post hoc, improved including minimally improved, 20 mg and 200 mg versus placebo); “little, if any, change in severity” in experiment [2] (traditional definition of improved (very much improved, much improved)). The “BOLD activation, visual task” value in experiment [3] is reported as “No significant or marginal changes in BOLD activation”.

The values are drawn from patent US20210308101A1, “METHODS OF TREATING FIBROMYALGIA” (Aptinyx Inc., priority 2019, published 2021).
